Literature values as cited in patent US20200246376A1, “HYDROGEN BASED COMPOSITIONS” (HYDROGEN4HEALTH PTY LTD, priority 2019, published 2020).

Structure (SMILES): [HH] [molecular hydrogen, hydrogen]
- saturation of molecular hydrogen in water (hydrogen water prepared by electrolysis): around 1.6 ppm
- typical saturation of hydrogen gas in water (standard temperature and pressure (STP)): 1.6 mg/L
